{"source": "patent US20250127857A1", "about": "“A COMPOSITION COMPRISING IL-36 AND/OR IL-18 FOR USE IN TREATING OCULAR DISORDERS” (THE PROVOST, FELLOWS, FOUNDATION SCHOLARS, & THE OTHER …, priority 2021, published 2025)", "key": {"VEGF": {"test_system": "VEGF", "test": "VEGF in HOCFs treated with IL-18", "assay_type": "cell-based, human", "conditions": "IL-18 100 ng/ml over 24 h", "protocol": "FIG. 20 illustrates IL-18 activates human ocular choroidal fibroblasts and inhibits VEGF secretion, wherein (A) is human ocular choroidal fibroblast (HOCFs) treated with IL-18 at increasing doses for 8 h, wherein cells were fixed and stained with antibody targeting intermediate filament vimentin (red), Hoechst (blue) and phalloidin (green); (B) is HOCFs treated with IL-18 (100 ng/ml) over 60 mins and immunoblotted for phospho-ERK and phospo-p65 with B-actin and GAPDH as controls; (C) is HOCFs treated with IL-18 (100 ng/ml) over 24 h as indicated, wherein cells were analysed for VEGF expression by qPCR (D) is HOCFs treated with 10, 100 or 1000 ng/ml of IL-18 as indicated over 48 h and cell death was analysed by LDH assay;"}, "VEGFR2": {"test_system": "VEGFR2", "test": "qPCR of VEGFR levels in HRMEC treated with IL-18", "assay_type": "cell-based, human", "conditions": "IL-18 100 ng/ml over timepoints", "protocol": "FIG. 15 illustrates IL-18 reduces expression of VEGFR2 specifically in Human retinal endothelial cells (HRMECs), wherein HRMECs were treated with IL-18 (100 ng/ml) over timepoints indicated, wherein cells lysates were prepared for RNA isolation and underwent qPCR and ddCt method to assess relative expression of VEGFR levels, using B-actin as reference control, wherein RT-PCR data are means±SEM of n=3 independent experiments;\nConfluent HRMECs were stimulated with 50 or 100 ng/ml of recombinant human IL-18 (SB-485232; GSK); 10 ng/ml of human IL-1α (R&D systems) or 50 ng/ml of human VEGF165 (Peprotech) diluted in complete growth medium, with complete growth media added to wells alone for ‘no treatment’. […]\nAll RT-PCR assays were carried out using the SensiFAST SYBR Hi-ROX Kit (Bioline) with primers designed using Primer-BLAST (NCBI). […] Data were analysed using the QuantStudio™ Design & Analysis software (Applied Biosystems) and using the comparative Ct (ΔΔCt) method where test samples were normalised to endogenous control (β-Actin) followed by normalising the ΔCt of test samples to sample control (untreated sample), then calculating 2^−ΔΔCt to find the relative fold change of test samples over sample control."}, "[1]": {"test_system": "laser induced CNV in WT mice", "test": "Fibrovascular scarring after laser induced CNV, 14 days", "assay_type": "in vivo, mouse", "conditions": "IL-18 0.3ng/eye intravitreally, vs vehicle control", "protocol": "FIG. 24 illustrates IL-18 reduces the area of fibrovascular scarring, wherein WT mice underwent laser induced CNV and were injected intravitreally with IL-18 (0.3ng/eye), wherein 14 days later eyes were enucleated, flatmounts were stained with F4/80, vimentin and isolectin and imaged by confocal microscopy; and […]"}, "[2]": {"test_system": "primary human foetal RPE (hfRPE) cells", "test": "Scratch assay in hfRPE cultures", "assay_type": "cell-based", "conditions": "IL-18 10-1000 ng/ml, up to 18 hours", "protocol": "FIG. 19 illustrates IL-18 induces fibroblast-like cells to migrate to close a wound created in human Retinal Pigment Epithelium monolayer in vitro, wherein primary human foetal RPE (hfRPE) cells were treated with control medium (0 ng/ml) or increasing doses of IL-18 (10-1000 ng/ml) immediately after making a scratch through the centre of the well, wherein microscopy images were acquired at the same location at baseline (0 hours) and then every 2 hours until 18 hours, representative images for each treatment group are shown, wherein cells were stained with DAPI to show the nuclei, and phalloidin to show F-actin, wherein Brightfield images (phase) are also shown;"}}, "data": [{"substance": "IL-18: recombinant human IL-18 (SB-485232; GSK)", "values": [{"measurement": "baseline secretion of VEGF from HOCFs", "setting": "VEGF", "value": "strongly reduces the baseline secretion of VEGF"}, {"measurement": "VEGFR2 expression", "setting": "VEGFR2", "value": "specifically reduces VEGFR2"}, {"measurement": "vimentin positive staining (area of fibrovascular scarring)", "setting": "[1]", "value": "less vimentin positive staining"}, {"measurement": "cell migration into wound in hfRPE monolayer", "setting": "[2]", "value": "appearance of fibroblast-like cells that migrated across the wound"}]}]}
